Experiment: xn = mol fraction of the nth substance listed
Settings: 100 kPa, Liquid; for viscosity: Falling or rolling sphere viscometry; for mass density: Vibrating tube method

CCCCCCCCCCCC [dodecane] + CCCCO
Settings	mass density [kg/m3]	viscosity [mPa·s]
293.15 K, x1 = 0.1045	794.67	2.478
293.15 K, x1 = 0.2008	784.43	2.167
293.15 K, x1 = 0.3002	776.26	1.935
293.15 K, x1 = 0.3985	769.8	1.772
293.15 K, x1 = 0.4995	764.28	1.64
293.15 K, x1 = 0.5978	759.94	1.561
293.15 K, x1 = 0.7012	755.99	1.494
293.15 K, x1 = 0.7671	754.1	1.476
293.15 K, x1 = 0.8773	751.22	1.458
293.15 K, x1 = 1	748.83	1.491
298.15 K, x1 = 0.1045	790.86	2.183
298.15 K, x1 = 0.2008	780.62	1.919
298.15 K, x1 = 0.3002	772.45	1.722
298.15 K, x1 = 0.3985	765.97	1.588
298.15 K, x1 = 0.4995	760.49	1.477
298.15 K, x1 = 0.5978	756.17	1.414
298.15 K, x1 = 0.7012	752.24	1.359
298.15 K, x1 = 0.7671	750.38	1.345
298.15 K, x1 = 0.8773	747.52	1.331
298.15 K, x1 = 1	745.22	1.366
303.15 K, x1 = 0.1045	787.01	1.934
303.15 K, x1 = 0.2008	776.76	1.709
303.15 K, x1 = 0.3002	768.59	1.543
303.15 K, x1 = 0.3985	762.12	1.43
303.15 K, x1 = 0.4995	756.67	1.338
303.15 K, x1 = 0.5978	752.37	1.287
303.15 K, x1 = 0.7012	748.47	1.242
303.15 K, x1 = 0.7671	746.62	1.231
303.15 K, x1 = 0.8773	743.81	1.22
303.15 K, x1 = 1	741.59	1.257
308.15 K, x1 = 0.1045	783.13	1.721
308.15 K, x1 = 0.2008	772.86	1.529
308.15 K, x1 = 0.3002	764.7	1.388
308.15 K, x1 = 0.3985	758.24	1.295
308.15 K, x1 = 0.4995	752.82	1.218
308.15 K, x1 = 0.5978	748.54	1.177
308.15 K, x1 = 0.7012	744.67	1.141
308.15 K, x1 = 0.7671	742.85	1.132
308.15 K, x1 = 0.8773	740.07	1.124
308.15 K, x1 = 1	737.95	1.154
313.15 K, x1 = 0.1045	779.2	1.537
313.15 K, x1 = 0.2008	768.93	1.373
313.15 K, x1 = 0.3002	760.78	1.254
313.15 K, x1 = 0.3985	754.33	1.177
313.15 K, x1 = 0.4995	748.93	1.114
313.15 K, x1 = 0.5978	744.69	1.082
313.15 K, x1 = 0.7012	740.88	1.051
313.15 K, x1 = 0.7671	739.06	1.045
313.15 K, x1 = 0.8773	736.32	1.04
313.15 K, x1 = 1	734.31	1.076
318.15 K, x1 = 0.1045	775.23	1.379
318.15 K, x1 = 0.2008	764.95	1.239
318.15 K, x1 = 0.3002	756.81	1.138
318.15 K, x1 = 0.3985	750.39	1.075
318.15 K, x1 = 0.4995	745.02	1.022
318.15 K, x1 = 0.5978	740.81	0.997
318.15 K, x1 = 0.7012	737.02	0.972
318.15 K, x1 = 0.7671	735.24	0.968
318.15 K, x1 = 0.8773	732.55	0.964
318.15 K, x1 = 1	730.66	1.003
323.15 K, x1 = 0.1045	771.21	1.241
323.15 K, x1 = 0.2008	760.93	1.122
323.15 K, x1 = 0.3002	752.8	1.038
323.15 K, x1 = 0.3985	746.41	0.985
323.15 K, x1 = 0.4995	741.07	0.942
323.15 K, x1 = 0.5978	736.9	0.923
323.15 K, x1 = 0.7012	733.15	0.902
323.15 K, x1 = 0.7671	731.4	0.9
323.15 K, x1 = 0.8773	728.77	0.899
323.15 K, x1 = 1	727	0.936
328.15 K, x1 = 0.1045	767.14	1.121
328.15 K, x1 = 0.2008	756.86	1.02
328.15 K, x1 = 0.3002	748.75	0.949
328.15 K, x1 = 0.3985	742.38	0.906
328.15 K, x1 = 0.4995	737.08	0.871
328.15 K, x1 = 0.5978	732.96	0.856
328.15 K, x1 = 0.7012	729.25	0.84
328.15 K, x1 = 0.7671	727.53	0.839
328.15 K, x1 = 0.8773	724.96	0.839
328.15 K, x1 = 1	723.33	0.877
333.15 K, x1 = 0.1045	763.01	1.017
333.15 K, x1 = 0.2008	752.73	0.931
333.15 K, x1 = 0.3002	744.64	0.871
333.15 K, x1 = 0.3985	738.31	0.837
333.15 K, x1 = 0.4995	733.06	0.808
333.15 K, x1 = 0.5978	728.98	0.797
333.15 K, x1 = 0.7012	725.32	0.784
333.15 K, x1 = 0.7671	723.64	0.785
333.15 K, x1 = 0.8773	721.13	0.785
333.15 K, x1 = 1	719.65	0.823
